# Results published in article PMC2931804 (Clinical cancer research : an official journal of the …, 2010).
# Entries after “also recorded” stand apart in the source; their conditions may differ.
# Columns and labels:
# [1] = FU plasma pharmacokinetics; type: in vivo, human; details: at the MTD
# [2] = 300 mg orally twice daily × 1 week with FOLFOX; cited from earlier work
# thymidylate synthase = assay: Tumor thymidylate synthase expression by RT-PCR in liver metastasis biopsies; type: in vivo, human; details: posttreatment biopsies at the MTD levels
smiles,measurement,setting,value
"O=C(CCCCCCC(=O)Nc1ccccc1)NO [vorinostat, suberoylanilide hydroxamic acid]",Pharmacokinetic interactions between vorinostat and FU,[1],No pharmacokinetic interactions
same,maximum vorinostat serum concentrations,[2],< 1.5 µmol/L
same,Impact of vorinostat on intratumoral thymidylate synthase expression,thymidylate synthase,No definitive impact; also recorded: no clear signs of thymidylate synthase downregulation
